Experiment [1] addresses Glycogen synthase kinase-3 alpha (Homo sapiens, UniProt P49840). Nature of the experiment: TR-FRET Assay. An outline of the steps:
(§1)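 Signal is measured as TR-FRET between a terbium anti-phospho-Ser641 antibody and streptavidin-d2, added after an EDTA quench. Compounds are preincubated 30 min in assay buffer.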

For experiment [2], the target named is Glycogen synthase kinase-3 beta (Homo sapiens, UniProt P49841). Nature of the experiment: TR-FRET Assay. The essentials:
as §1
Background: TR-FRET usually uses a lanthanide donor and a delayed reading to cut background.

As usually defined, the IC50 is the concentration at which inhibition is half-maximal. A higher IC50 goes with weaker potency.

Where “and” joins values, the source holds several entries; their conditions need not be identical. Equal values may be shown once.

Chain of Glycogen synthase kinase-3 beta (P49841 whole entry): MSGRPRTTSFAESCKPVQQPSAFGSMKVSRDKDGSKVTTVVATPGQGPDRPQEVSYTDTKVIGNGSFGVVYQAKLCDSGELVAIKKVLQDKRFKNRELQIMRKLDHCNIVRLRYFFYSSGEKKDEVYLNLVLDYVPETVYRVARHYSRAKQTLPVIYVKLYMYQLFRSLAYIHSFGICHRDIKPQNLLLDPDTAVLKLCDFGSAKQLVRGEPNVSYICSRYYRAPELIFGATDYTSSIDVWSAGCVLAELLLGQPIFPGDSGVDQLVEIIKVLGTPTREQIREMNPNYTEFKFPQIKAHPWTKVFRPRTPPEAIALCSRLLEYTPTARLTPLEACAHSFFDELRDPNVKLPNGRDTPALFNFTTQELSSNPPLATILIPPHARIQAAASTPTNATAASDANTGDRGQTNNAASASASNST
Chain of Glycogen synthase kinase-3 alpha (P49840 whole entry): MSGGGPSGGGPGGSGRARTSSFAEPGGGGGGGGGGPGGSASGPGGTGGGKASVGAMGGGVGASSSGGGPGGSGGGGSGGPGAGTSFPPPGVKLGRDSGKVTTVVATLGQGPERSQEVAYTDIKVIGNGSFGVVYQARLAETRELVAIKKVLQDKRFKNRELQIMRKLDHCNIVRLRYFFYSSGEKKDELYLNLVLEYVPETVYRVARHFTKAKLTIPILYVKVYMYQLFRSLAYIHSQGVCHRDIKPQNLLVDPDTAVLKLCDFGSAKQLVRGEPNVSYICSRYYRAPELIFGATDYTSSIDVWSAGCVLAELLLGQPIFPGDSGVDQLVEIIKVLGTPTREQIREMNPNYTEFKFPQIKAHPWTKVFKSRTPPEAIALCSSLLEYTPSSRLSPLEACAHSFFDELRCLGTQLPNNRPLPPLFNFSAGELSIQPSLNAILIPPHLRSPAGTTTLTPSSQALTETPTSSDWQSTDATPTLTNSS

Turning to `CC[C@]1(c2cccc(N(C)c3cccnn3)c2)C2=CN=NC2NC2=C1C(=O)CC(C)(C)C2` (stereo not given in full) [US20250313563, Compound 911975], the half-maximal inhibitory concentration (IC50) in experiment [1] lay in the range of 0.1 to 1 µM; in experiment [2], 1 to 5 µM.

For the molecule `CC[C@]1(c2cccc(N(C)c3ncccn3)c2)C2=CN=NC2NC2=C1C(=O)CC(C)(C)C2` (stereo not given in full) [US20250313563, Compound 911980], the concentration for half-maximal inhibition (IC50) in experiment [1] is less than 0.1 µM; in experiment [2] it was < 0.1 µM and 0.1 to 1 µM.

With `CC[C@]1(c2cccc(-c3ccnc(OC)c3)c2)C2=CN=NC2NC2=C1C(=O)CC(C)(C)C2` (stereo not given in full) [US20250313563, Compound 911988], the IC50 is < 0.1 µM and 0.1 to 1 µM in experiment [1]; 0.1 to 1 µM and > 5 µM in experiment [2].

In the case of `CC[C@]1(c2cccc(-c3c(C)nn(C)c3C)c2)C2=CN=NC2NC2=C1C(=O)CC(C)(C)C2` (stereo not given in full) [US20250313563, Compound 911990], the IC50 in experiment [1] was less than 0.1 µM; in experiment [2], < 0.1 µM and 0.1 to 1 µM.

In the case of `CC[C@@]1(c2cccc(-c3ccnn3C)c2)C2=CN=NC2NC2=C1C(=O)CC(C)(C)C2` (stereo not given in full) [US20250313563, Compound 911993], the figures for the IC50 in experiment [1] and in experiment [2] were less than 0.1 µM and 0.1 to 1 µM, respectively.

In the case of `CC[C@]1(c2cccc(N3CCc4ccncc43)c2)C2=CN=NC2NC2=C1C(=O)CC(C)(C)C2` (stereo not given in full) [US20250313563, Compound 912003], the IC50 was less than 0.1 µM in experiment [1] and 0.1 to 1 µM in experiment [2].

As for `CC[C@]1(c2cccc(C(F)(F)F)c2)C2=CN=NC2NC2=C1C(=O)N(Cc1ccccc1)CC2` (stereo not given in full) [US20250313563, Compound 912005], the 50% inhibitory concentration (IC50) lay in the range of 0.1 to 1 µM in experiment [1] and 1 to 5 µM in experiment [2].

As for `CC[C@@]1(c2cccc(C(F)(F)F)c2)C2=CN=NC2NC2=C1C(=O)N(Cc1ccccc1)CC2` (stereo not given in full) [US20250313563, Compound 912006], the IC50 in experiment [1] and in experiment [2] was greater than 5 µM throughout.

`CCC1(c2cccc(N(CCc3ccccc3)C(C)=O)c2)C2=CN=NC2NC2=C1C(=O)CC(C)(C)C2` (stereo not given) [US20250313563, Compound 912064]: the IC50 in experiment [1] and in experiment [2] was less than 0.1 µM throughout.

In the case of `CCC1(c2cccc(N(C)C(=O)C3CCCCC3)c2)C2=CN=NC2NC2=C1C(=O)CC(C)(C)C2` (stereo not given) [US20250313563, Compound 912065], the half-inhibitory concentration (IC50) was less than 0.1 µM in experiment [1] and 0.1 to 1 µM in experiment [2].

For the molecule `CCC1(c2cccc(N(C)C(=O)CCc3ccccc3)c2)C2=CN=NC2NC2=C1C(=O)CC(C)(C)C2` (stereo not given) [US20250313563, Compound 912066], the concentration for half-maximal inhibition (IC50) in experiment [1] was less than 0.1 µM; in experiment [2] it was 0.1 to 1 µM.

As for `CCC1(c2cccc(N(C)C(O)C3CC3)c2)C2=CN=NC2NC2=C1C(=O)CC(C)(C)C2` (stereo not given) [US20250313563, Compound 912067], the IC50 in experiment [1] and in experiment [2] was less than 0.1 µM throughout.

With `CCC1(c2cccc(N(C)C(=O)c3cnn(C)c3)c2)C2=CN=NC2NC2=C1C(=O)CC(C)(C)C2` (stereo not given) [US20250313563, Compound 912068], the IC50 is less than 0.1 µM in experiment [1] and 0.1 to 1 µM in experiment [2].

With `CCC1(c2cccc(N(C(C)=O)C3CCCC3)c2)C2=CN=NC2NC2=C1C(=O)CC(C)(C)C2` (stereo not given) [US20250313563, Compound 912069], the 50% inhibitory concentration (IC50) in experiment [1] and in experiment [2] was less than 0.1 µM throughout.

Take `CCC1(c2cccc(N(C)C(=O)C3CCOCC3)c2)C2=CN=NC2NC2=C1C(=O)CC(C)(C)C2` (stereo not given) [US20250313563, Compound 912070]: the half-inhibitory concentration (IC50) was less than 0.1 µM in experiment [1] and 0.1 to 1 µM in experiment [2].

Turning to `CCC1(c2cccc(N(C)C(=O)Cc3ccccc3)c2)C2=CN=NC2NC2=C1C(=O)CC(C)(C)C2` (stereo not given) [US20250313563, Compound 912071], the half-inhibitory concentration (IC50) in experiment [1] and in experiment [2] was less than 0.1 µM each time.

On to `CC1N=NC2=C1C1(CCOCC1)C1=C(CC(C)(C)C(F)C1=O)N2` (stereo not given) [US20250313563, Compound 912072], for which the half-inhibitory concentration (IC50) in experiment [1] and in experiment [2] was 0.1 to 1 µM throughout.

For the molecule `CC1(C)CC(=O)C2=C(C1)NC1=C(CN=N1)C21CN(CC(F)F)C1` [US20250313563, Compound 912073], the half-inhibitory concentration (IC50) in experiment [1] and in experiment [2] was 0.1 to 1 µM throughout.

Regarding `CC1(C)CC(=O)C2=C(C1)NC1=C(CN=N1)C21CN(CC(F)(F)F)C1` [US20250313563, Compound 912074], the results for the concentration for half-maximal inhibition (IC50) in experiment [1] and in experiment [2] were less than 0.1 µM and 0.1 to 1 µM, respectively.

`CC1(C)CC(=O)C2=C(C1)NC1=C(CN=N1)C21CNC1` [US20250313563, Compound 912075]: the results for the half-inhibitory concentration (IC50) in experiment [1] and in experiment [2] were 1 to 5 µM and greater than 5 µM, respectively.

With `CC1(C)CC(=O)C2=C(C1)NC1=C(CN=N1)C21CN(C2COC2)C1` [US20250313563, Compound 912076], the half-inhibitory concentration (IC50) in experiment [1] lay within 0.1 to 1 µM; in experiment [2], 1 to 5 µM.

For the molecule `CC1(C)CC(=O)C2=C(C1)NC1=C(CN=N1)C21CN(c2ccncc2)C1` [US20250313563, Compound 912077], the IC50 in experiment [1] and in experiment [2] was greater than 5 µM throughout.

Take `C[C@H]1CC(=O)C2=C(C1)NC1=C(CN=N1)C21CCOCC1` [US20250313563, Compound 912078]: the 50% inhibitory concentration (IC50) in experiment [1] and in experiment [2] was 0.1 to 1 µM each time.

For `C[C@@H]1CC(=O)C2=C(C1)NC1=C(CN=N1)C21CCOCC1` [US20250313563, Compound 912079], the IC50 in experiment [1] and in experiment [2] was 0.1 to 1 µM in each case.

Regarding `O=C1C2=C(NC3N=NC=C3C23CCOCC3)[C@H]2CC[C@@H]1C2` (stereo not given in full) [US20250313563, Compound 912080], the IC50 in experiment [1] and in experiment [2] was 0.1 to 1 µM in each case.

For the molecule `O=C1C2=C(NC3N=NC=C3C23CCOCC3)[C@@H]2CC[C@H]1C2` (stereo not given in full) [US20250313563, Compound 912081], the results for the half-inhibitory concentration (IC50) in experiment [1] and in experiment [2] were 0.1 to 1 µM and 1 to 5 µM, respectively.

`CC[C@]1(c2cccc([C@@H]3CCOC(C)(C)C3)c2)C2=CN=NC2NC2=C1C(=O)CC(C)(C)C2` (stereo not given in full) [US20250313563, Compound 912089]: the IC50 in experiment [1] and in experiment [2] was 0.1 to 1 µM each time.

As to `CC[C@@]1(c2cccc([C@@H]3CCOC(C)(C)C3)c2)C2=CN=NC2NC2=C1C(=O)CC(C)(C)C2` (stereo not given in full) [US20250313563, Compound 912091], the IC50 in experiment [1] and in experiment [2] was greater than 5 µM in each case.

For the molecule `CC1(C)CC(=O)C2=C(C1)NC1=C(CN=N1)C21CCN(S(C)(=O)=O)C1` (stereo not given) [US20250313563, Compound 912092], the half-maximal inhibitory concentration (IC50) in experiment [1] and in experiment [2] was less than 0.1 µM throughout.

For `CC1(C)CC(=O)C2=C(C1)NC1=C(CN=N1)C21COCCOC1` [US20250313563, Compound 912094], the figures for the half-inhibitory concentration (IC50) in experiment [1] and in experiment [2] were 1 to 5 µM and greater than 5 µM, respectively.

For `CC[C@]1(c2cccc(C(F)(F)F)c2)C2=CN=NC2NC2=C1C(=O)N[C@H](C)C2` (stereo not given in full) [US20250313563, Compound 912096], the IC50 in experiment [1] is less than 0.1 µM; in experiment [2], 0.1 to 1 µM.

With `CC[C@]1(c2cccc(C(F)(F)F)c2)C2=CN=NC2NC2=C1C(=O)N[C@@H](C)C2` (stereo not given in full) [US20250313563, Compound 912097], the 50% inhibitory concentration (IC50) is 0.1 to 1 µM in experiment [1] and greater than 5 µM in experiment [2].

`CC[C@@]1(c2cccc(C(F)(F)F)c2)C2=CN=NC2NC2=C1C(=O)N[C@H](C)C2` (stereo not given in full) [US20250313563, Compound 912098]: the results for the IC50 in experiment [1] and in experiment [2] were less than 0.1 µM and 0.1 to 1 µM, respectively.

Take `CC[C@@]1(c2cccc(C(F)(F)F)c2)C2=CN=NC2NC2=C1C(=O)N[C@@H](C)C2` (stereo not given in full) [US20250313563, Compound 912099]: the IC50 in experiment [1] and in experiment [2] was greater than 5 µM throughout.

Regarding `CCC1(c2cccc(C(F)(F)F)c2)C2=C(N=NC2)NC2=C1C(=O)NC2(C)C` (stereo not given) [US20250313563, Compound 912104], the results for the half-maximal inhibitory concentration (IC50) in experiment [1] and in experiment [2] were less than 0.1 µM and 0.1 to 1 µM, respectively.
